Here are results for nine molecules from EPA's ToxValDB 9.5.

Data set [1] deals with Canidae. The following applies: subchronic; duration: 13 weeks; oral; diet; F; Beagle.
Data set [2] has as its system Rattus norvegicus. Conditions: developmental; oral; drinking water; Fetus: Decreased birth weight.
In data set [3] the test system is Mus musculus. The following applies: developmental; duration: 10 days; inhalation; intermittent; Fetus: Decreased birth weight.
In data set [4] the test system is Rattus norvegicus. Put plainly: LD5; higher = less toxic. The following applies: developmental; oral; drinking water; M/F; reduced pup body weight.
In data set [5] the test system is Rattus norvegicus. Conditions: repeat dose other; oral.
Data set [6] has as its system Homo sapiens. The following applies: clinical; duration: 6 hours; inhalation; M/F; neurological.
In data set [7] the test system is Rattus norvegicus. The following applies: developmental; oral; drinking water; M/F; reduced pup body weight.
Data set [8] deals with Mus musculus. The following applies: developmental; inhalation; M/F; developmental toxicity (skeletal variations).
Data set [9] relates to Rattus norvegicus. Conditions: subchronic, oral.
Data set [10] deals with Mus musculus. Briefly: LD100; higher = less toxic. The following applies: acute.
The subject of data set [11] is Oryctolagus sp. Conditions: acute.
The subject of data set [12] is Rattus norvegicus. Conditions: for LD50 / LC50: acute.
The test system of data set [13] is Cavia porcellus. Conditions: acute; oral; Guinea Pig.
Data set [14] deals with Mus musculus.
Data set [15] deals with Oryctolagus sp. Put plainly: LD0; higher = less toxic. The following applies: acute; dermal.
Data set [16] has as its system Rattus norvegicus. Put plainly: LD0; higher = less toxic. Conditions: acute; injection; subcutaneous.
The test system of data set [17] is Canidae. Put plainly: LD0; higher = less toxic. Conditions: acute; injection; intravenous; Dog Other.
In data set [18] the test system is Cavia porcellus. Briefly: LD0; higher = less toxic. Conditions: acute; injection; subcutaneous; Guinea Pig.
In data set [19] the test system is Oryctolagus sp. Briefly: LD40; higher = less toxic. Conditions: acute; dermal; occlusive; New Zealand.
The test system of data set [20] is Sus scrofa. The following applies: subchronic; duration: 90 days; oral; diet; M/F; Not specified; Urinary, Hepatic.
Data set [21] concerns Homo sapiens. Conditions: clinical; duration: 16 days; oral; M/F; plasma cholinesterase inhibition.
Data set [22] has as its system Rattus norvegicus. Briefly: LC10; higher = less toxic. Conditions: acute; inhalation; Sprague-Dawley.
For data set [23], the system named is Oryctolagus sp. Conditions: uterotrophic; duration: 12 days; oral; Active.
Data set [24] relates to Rattus norvegicus. The following applies: uterotrophic, Active.
The subject of data set [25] is Mus musculus. Conditions: uterotrophic, Active.
In data set [26] the test system is Sus scrofa. Conditions: reproduction developmental; duration: 15 days; oral; diet; F; Not specified; Increased inter-estrus interval, concentrations of progesterone and prolonged maintenance of corpora lutea.
The subject of another data set is Ovis sp. Conditions: uterotrophic; duration: 14 days; injection; Active.
The mark [27] stands for this setting: subchronic, duration: 13 weeks, oral, diet, Fischer 344.
Where [28] appears, read: subchronic, duration: 13 weeks, oral, diet, B6C3F1.
Where [29] appears, read: gavage, M, Sprague-Dawley, Clinical Observation: Salivation (transient) + Functional Observational Battery: Salivation Spontaneous motor activity (total ambulatory ….
The mark [30] stands for this setting: duration: 1 days, injection, subcutaneous.

Values joined by “and” are separate entries in the source; they are usually repeats but may differ in a detail not shown here. Identical values can stand only once. Bounds are passed on as bounds.

Consider `c1ccc2c(c1)Nc1ccccc1S2` [Phenothiazine], for which the no-observed-adverse-effect level (NOAEL) with Canidae [1] is 1.59 mg/kg-day.

As for `CCC(C)=O` [Methyl ethyl ketone], the NOAEL with Rattus norvegicus [2] amounted to 1710 mg/kg-day; with Mus musculus [3], 2980 mg/m3; in the data set with Rattus norvegicus [5], 1770 mg/kg-day; in the data set with Rattus norvegicus [7] it was 594 mg/kg-day. This molecule also came in with an LD5 with Rattus norvegicus [4] of 639 mg/kg-day. Besides, the LOAEL in the data set on Rattus norvegicus [5] was determined as 4570 mg/kg-day; in the data set on Homo sapiens [6], 292 mg/m3; with Rattus norvegicus [7] it was 1770 mg/kg-day. In addition, in the data set with Mus musculus [8], the LEC was 5200 mg/m3.

As for `NC(=Nc1ccccc1)Nc1ccccc1` [1,3-Diphenylguanidine], the NOEL in the data set with Rattus norvegicus [9] (diet, F, Fischer 344, Deaths + Clinical Observation: Ruffled fur Emacation Pale skin + Body Weight Changes: decrease + Food Consumption: decrease + Hematology: …) was less than 17 mg/kg-day; with Rattus norvegicus [9] (diet, M/F, Fischer 344, Deaths + Clinical Observation: Ruffled fur Emacation Pale skin + Body Weight Changes: decrease + Food Consumption: decrease + Hematology: …), less than 24 mg/kg-day. Also, the LD100 was found to be 50 mg/kg with Mus musculus [10] (injection, subcutaneous) and 450 mg/kg in the data set on Mus musculus [10] (oral). The LD50 in the data set on Oryctolagus sp. [11] (oral) was 250 mg/kg and 246 mg/kg; with Cavia porcellus [13], 250 mg/kg; in the data set with Mus musculus [14] (acute, injection, Intraperitoneal), 75 mg/kg and ≥ 25 mg/kg and ≤ 50 mg/kg. In addition, the NOAEL is 25 mg/kg-day in the data set on Rattus norvegicus [12] (developmental, duration: 10 days, oral, gavage, Sprague-Dawley); 750 ppm in the data set on Rattus norvegicus [12] (reproduction developmental, duration: 13 weeks, oral, diet, Fischer 344, generation: F0); 5 mg/kg-day and 10 mg/kg-day in the data set on Rattus norvegicus [12] (reproduction developmental, duration: 10 days, oral, gavage, F, Sprague-Dawley); 100 ppm in the data set with Rattus norvegicus [12] (short-term, duration: 28 days, oral, diet); 48 mg/kg-day in the data set with Rattus norvegicus [12] (setting [27]); 14.4 mg/kg-day in the data set with Rattus norvegicus [12] (subchronic, duration: 90 days, oral, diet, Sprague-Dawley). Moreover, the NOAEL in the data set with Mus musculus [14] (developmental, duration: 19 days, oral, gavage, ICR) is no less than 10 mg/kg-day; in the data set on Mus musculus [14] (reproduction developmental, duration: 8 weeks, oral, gavage, CD1, generation: F0) it was no less than 16 mg/kg-day; in the data set on Mus musculus [14] (reproduction developmental, duration: 19 days, oral, gavage, F, ICR), 4 mg/kg-day; with Mus musculus [14] (setting [28]), 98.5 mg/kg-day. In addition, the LOAEL is 300 ppm in the data set on Rattus norvegicus [12] (short-term, duration: 14 days, oral, diet, Sprague-Dawley); 72 mg/kg-day in the data set on Rattus norvegicus [12] (setting [27]); 148 mg/kg-day in the data set on Mus musculus [14] (setting [28]). Moreover, the LD0 in the data set on Oryctolagus sp. [15] is greater than 2000 mg/kg; in the data set on Rattus norvegicus [16] it was 50 mg/kg; in the data set on Canidae [17], 25 mg/kg; with Cavia porcellus [18] it was 200 mg/kg.

Regarding `Cc1ccncc1` [4-Methylpyridine], in the data set with Rattus norvegicus [9] (setting [29]), the LOEL was determined as 20 mg/kg-day. Besides, the NOEL in the data set on Rattus norvegicus [9] (setting [29]) was 5 mg/kg-day. Besides, the median lethal dose (LD50) in the data set with Oryctolagus sp. [11] (dermal, occlusive, New Zealand) is ≥ 126 mg/kg and ≤ 200 mg/kg; in the data set with Rattus norvegicus [12] (oral, gavage, Sprague-Dawley), 841 mg/kg and 700 mg/kg. For the same molecule, the LD40 with Oryctolagus sp. [19] is ≥ 200 mg/kg and ≤ 316 mg/kg.

Turning to `CCOCCOCCO` [2-(2-Ethoxyethoxy)ethanol], the NOAEL came out at 1340 mg/kg-day in the data set with Rattus norvegicus [9] (duration: 60 days, gavage, M, CD(BR), Deaths + Clinical Observation: Bloody urine LethargyProstration PiloerectionUnkempt hair coat Blood around the mouth and nose + Body Weight …); 0.5% in the data set on Rattus norvegicus [9] (duration: 90 days, diet, M/F, CFE, Body Weight Changes: Terminal body weight decrease% + Food Consumption: decrease% + Urinalysis: Oxalate crystals increase% + Hematology: …); 167 mg/kg-day with Sus scrofa [20].

On to `O=P(O)(O)CCCl` [Ethephon], for which the LEL with Homo sapiens [21] amounted to 0.5 mg/kg-day.

With `CC(C)C#N` [2-Methylpropanenitrile], the LC10 with Rattus norvegicus [22] was 3320 mg/m3. For the same molecule, the LD50 is 239 mg/kg in the data set with Oryctolagus sp. [11] (dermal, occlusive, New Zealand); > 50 mg/kg and ≤ 100 mg/kg in the data set on Rattus norvegicus [12] (oral); 77 mg/kg with Rattus norvegicus [12] (oral, gavage). Besides, the LC50 with Rattus norvegicus [12] (inhalation, Sprague-Dawley) is greater than 2830 mg/m3; in the data set on Rattus norvegicus [12] (inhalation, albino) it was ≥ 1410 mg/m3 and ≤ 2830 mg/m3. Besides, in the data set on Rattus norvegicus [12] (reproduction developmental, duration: 6 days, inhalation, F, Sprague-Dawley), the no-observed-adverse-effect level (NOAEL) worked out at 283 mg/m3.

Take `C[C@H]1CCCC(=O)CCC/C=C/c2cc(O)cc(O)c2C(=O)O1` [Zearalenone]: the NOEL in the data set on Rattus norvegicus [9] (duration: 13 weeks, diet, M/F, Fischer 344, Body Weight Changes: decrease + Histopathology: Seminal vesicle-Atrophy Bone-Osteopetrosis Pituitary-Hyperplasia Mammary gland-Ductular …) is less than 2.88 mg/kg-day; with Sus scrofa [26] it was 0.04 mg/kg-day. The LEL in the data set on Oryctolagus sp. [23] was 1 mg/kg-day; with Rattus norvegicus [24] (duration: 3 days, oral), 0.18 mg/day; in the data set with Rattus norvegicus [24] (duration: 3 days, oral, diet) it was 1 mg/kg-day; with Rattus norvegicus [24] (duration: 8 days, oral), 1 mg/kg-day; in the data set on Mus musculus [25] (setting [30]), 5 mg/kg-day; in the data set with Mus musculus [25] (duration: 7 days, oral), 1 mg/kg-day. In the data set with Mus musculus [25] (oral), this molecule returned an LEL of 2 mg/kg-day. The LOEL in the data set with Sus scrofa [26] turned out to be 0.2 mg/kg-day.

For `C[C@]12CC[C@@H]3c4ccc(O)cc4CC[C@H]3[C@@H]1C[C@@H](O)[C@@H]2O` [Estriol], the LEL was found to be 0.001 mg/day with Ovis sp.; 0.001 mg/day in the data set with Rattus norvegicus [24] (duration: 0.125 days, injection, subcutaneous); 0.001 mg/day in the data set with Rattus norvegicus [24] (duration: 0.25 days, injection, subcutaneous); 3 mg/L in the data set on Rattus norvegicus [24] (duration: 1 days, dermal); 0.001 mg in the data set on Rattus norvegicus [24] (duration: 1 days, injection, intraperitoneal); 0.01 mg/day in the data set on Rattus norvegicus [24] (duration: 2 days, injection, subcutaneous). Also, the LEL in the data set on Rattus norvegicus [24] (duration: 3 days, oral) was 0.09 mg/kg-day; in the data set with Mus musculus [25] (duration: 0.17 days, injection, subcutaneous), 2.88e-07 mg; in the data set on Mus musculus [25] (setting [30]), 0.0761 mg/kg-day; with Mus musculus [25] (duration: 3 days, oral) it was 0.93 mg/kg-day. Moreover, the “LEL (% (w/w))” value with Rattus norvegicus [24] (duration: 2 days, implant) is 40. In addition, the “LEL (pellets)” value with Rattus norvegicus [24] (duration: 2 days, implant) was found to be 4. For the same molecule, in the data set with Rattus norvegicus [24] (duration: 5 days), the “LEL (rat units)” value came out at 1. Also, the “LEL (gamma)” value with Mus musculus [25] (duration: 3 days, injection, subcutaneous) amounted to 0.04.
